For 24 compounds, IC50, AC50 and EC50 results are on record in ChEMBL document CHEMBL1201862, “PubChem BioAssay data set” (2004).

For one assay, the system named is H9c2. In words: cells. The format is functional, cell-based. The conditions noted are these: Rattus norvegicus, H9c2, Myocardium.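 Also: confirmatory concentration-response retest of ultra-high-throughput screening hits for modulation of myocardial damage; cell death induced by hydrogen peroxide oxidative stress; compound pretreatment for 60 min then peroxide exposure for 2 h; potency is for protecting the cells against peroxide damage rather than for killing them.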
Assay [1] in a line: inhibitors of PGC1a acetylation in cells, dose response, cell-based, cherry-picked samples (AID 720514).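 Also: potency may reflect raised or lowered acetylation signal.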 It is filed as functional.
The target of assay [2] is T1, Cytochrome P450 3A4 (Homo sapiens, UniProt P08684). Conditions: Potency.
The target of assay [3] is 26S proteasome non-ATPase regulatory subunit 14 (Homo sapiens, UniProt O00487). Briefly: inhibition of proteasome subunit RPN11 – biochemical, fluorescence polarization, uHTS hits, confirmation (AID 602368). It is filed as functional. (In general: Fluorescence polarisation rises when a labelled molecule tumbles more slowly, as on binding a larger partner.)
For assay [4], the target named is 72 kDa type IV collagenase (Homo sapiens, UniProt P08253). In words: Dose Response validation of uHTS RPN11 inhibitor hits using a MMP-2 Fluorescence assay. The format is functional.
In assay [5] the target is Prothrombin (Bos taurus, UniProt P00735). In words: thrombin inhibition, dose response, biochemical, fluorescence polarization, uHTS hits (AID 602369). The format is functional.
Assay [6] has as its target Prothrombin (Homo sapiens, UniProt P00734). Briefly: Thrombin 1536 HTS Dose Response Confirmation. [Related pubchem assays: 1046 (Thrombin 1536 HTS; hits were confirmed in this assay)]. The format is functional.
The target of assay [7] is Eukaryotic translation initiation factor 4E (Mus musculus, UniProt P63073). In words: eIF4E–eIF4G protein interaction inhibitors, dose response, biochemical, TR-FRET (AID 855).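 Also: potency for disrupting eIF4E binding to eIF4GI seen as loss of FRET.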 The format is functional. (TR-FRET usually uses a lanthanide donor and a delayed reading to cut background.)
The target of the next assay is T2, Cytochrome P450 1A2 (Homo sapiens, UniProt P05177).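 Also: PubChem cytochrome P450 panel assay, CYP1A2 panel member.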
T2 sequence (P05177 whole entry): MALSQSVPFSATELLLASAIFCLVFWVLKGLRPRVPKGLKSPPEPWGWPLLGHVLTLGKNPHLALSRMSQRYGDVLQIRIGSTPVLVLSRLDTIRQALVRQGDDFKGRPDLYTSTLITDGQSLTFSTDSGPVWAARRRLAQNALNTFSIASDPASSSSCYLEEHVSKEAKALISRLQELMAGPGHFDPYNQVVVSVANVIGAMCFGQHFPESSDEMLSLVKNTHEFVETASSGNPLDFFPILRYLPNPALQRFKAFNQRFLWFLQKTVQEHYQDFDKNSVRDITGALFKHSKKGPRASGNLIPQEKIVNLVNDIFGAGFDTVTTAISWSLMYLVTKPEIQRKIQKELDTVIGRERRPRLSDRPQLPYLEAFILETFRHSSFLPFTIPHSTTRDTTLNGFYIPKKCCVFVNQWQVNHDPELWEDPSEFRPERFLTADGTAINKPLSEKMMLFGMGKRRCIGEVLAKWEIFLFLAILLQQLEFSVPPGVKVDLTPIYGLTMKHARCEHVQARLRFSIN

Assay [8] addresses T1, Cytochrome P450 3A4.
In another assay the target is Cytochrome P450 2C9 (Homo sapiens, UniProt P11712).
The nature of assay [9]: growth suppression of PTEN-null colon cells, dose response, cell-based, HCT116 PTEN knockout (AID 1047).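 Also: HCT116 colon tumor cells with PTEN knocked out; cells exposed to compound for 60 hours before readout; potency for loss of cell viability measured by luminescence.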 The format is functional.
The nature of assay [10]: growth suppression of beta-catenin-knockout colon cells, dose response, cell-based, HCT116, human colon tumor (AID 1045).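 Also: HCT116 colon tumor cells with beta catenin knocked out; cells exposed to compound for 60 hours.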 It is filed as functional.
For another assay, the target named is T3, Coagulation factor XII (Homo sapiens, UniProt P00748).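 Also: activated factor XIIa alpha cleaving a fluorogenic AMC peptide substrate; inhibitor potency from loss of enzyme activity.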
T3 sequence (P00748 whole entry): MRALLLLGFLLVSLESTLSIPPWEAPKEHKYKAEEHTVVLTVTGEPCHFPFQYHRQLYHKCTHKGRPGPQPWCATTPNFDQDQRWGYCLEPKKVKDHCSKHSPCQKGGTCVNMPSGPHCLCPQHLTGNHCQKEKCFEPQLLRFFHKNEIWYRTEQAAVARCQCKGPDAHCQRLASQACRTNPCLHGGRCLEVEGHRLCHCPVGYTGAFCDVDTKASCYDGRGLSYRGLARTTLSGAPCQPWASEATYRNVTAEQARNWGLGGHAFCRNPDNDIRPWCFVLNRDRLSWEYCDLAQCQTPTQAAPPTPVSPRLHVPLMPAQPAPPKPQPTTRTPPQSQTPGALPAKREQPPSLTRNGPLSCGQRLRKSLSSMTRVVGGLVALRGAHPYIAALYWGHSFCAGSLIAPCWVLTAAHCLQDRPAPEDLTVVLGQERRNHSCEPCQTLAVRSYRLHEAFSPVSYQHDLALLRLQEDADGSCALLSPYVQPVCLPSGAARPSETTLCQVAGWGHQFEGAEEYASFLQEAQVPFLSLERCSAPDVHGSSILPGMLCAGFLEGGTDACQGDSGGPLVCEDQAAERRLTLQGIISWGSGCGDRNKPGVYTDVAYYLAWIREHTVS
The format is functional.

For assay [11], the target named is DNA dC->dU-editing enzyme APOBEC-3G (Homo sapiens, UniProt Q9HC16). In words: Dose Response confirmation of small molecule APOBEC3G DNA Deaminase Inhibitors via a fluorescence-based single-stranded DNA deaminase assay. [Related pubchem assays (depositor defined):AID493012, AID493028]. It is filed as functional.
The target in a further assay is Large T antigen (Simian virus 40, UniProt P03070). It is filed as functional, Betapolyomavirus macacae.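 Also: Confirmatory-stage PubChem screen for compounds that inhibit SV40 T antigen.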
In assay [12] the target is T4, Voltage-gated N-type calcium channel alpha-1B subunit/Amyloid beta A4 precursor protein-binding family A member 1 (Homo sapiens, UniProt Q00975+Q02410). The format is protein assay.
Assay [13] concerns the target T4, Voltage-gated N-type calcium channel alpha-1B subunit/Amyloid beta A4 precursor protein-binding family A member 1. It is filed as protein assay. The source holds these as a separate data set.
Assay [14] concerns the target T5, Heat shock factor protein 1 (Mus musculus, UniProt P38532).
T5 sequence (P38532 whole entry): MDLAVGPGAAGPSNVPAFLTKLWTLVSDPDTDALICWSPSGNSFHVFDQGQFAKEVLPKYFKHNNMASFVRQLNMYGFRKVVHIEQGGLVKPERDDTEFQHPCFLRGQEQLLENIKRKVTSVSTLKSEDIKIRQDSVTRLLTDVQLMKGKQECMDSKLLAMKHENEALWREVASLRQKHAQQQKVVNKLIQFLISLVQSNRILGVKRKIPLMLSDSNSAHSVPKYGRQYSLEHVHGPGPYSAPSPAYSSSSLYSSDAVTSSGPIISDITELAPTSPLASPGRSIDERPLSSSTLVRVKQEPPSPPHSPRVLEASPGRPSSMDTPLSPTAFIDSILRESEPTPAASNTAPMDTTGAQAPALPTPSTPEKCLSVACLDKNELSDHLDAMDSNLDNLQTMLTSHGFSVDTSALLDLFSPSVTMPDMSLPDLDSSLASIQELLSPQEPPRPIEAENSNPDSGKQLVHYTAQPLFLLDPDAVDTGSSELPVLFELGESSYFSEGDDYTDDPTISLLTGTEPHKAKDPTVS
Briefly: inhibition of MG132-induced HSE-luciferase signal, confirmation, cell-based, NIH3T3, luminescence, dose retest (AID 2382).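 Also: NIH3T3 fibroblasts with HSF1-driven luciferase reporter stressed by proteasome inhibitor MG132; luminescence from HSF1-driven luciferase expression after 8 hours of MG132 stress.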 It is filed as functional.

Assay [15] relates to HEK293. In words: NOD1 signaling inhibitors, primary screen, cell-based, luminescence, uHTS (AID 1578). It is filed as functional. The conditions noted are these: Homo sapiens.
Assay [16] relates to HEK293. Briefly: cells. The format is functional, cell-based. The conditions noted are these: Homo sapiens.
For assay [17], the system named is HEK293. Briefly: cells. The format is functional, cell-based. Conditions: Homo sapiens. This is another data set of the same source.
For assay [18], the target named is Nucleotide-binding oligomerization domain-containing protein 2 (Homo sapiens, UniProt Q9HC29). In words: NOD2 signaling inhibitors, cell-based, luminescence, uHTS, HEK293 (AID 1566). The format is functional.
Assay [19] concerns HEK293. In words: NOD2 signaling inhibitors in MDP-stimulated cells, cell-based, uHTS, luminescence (AID 2001). The format is functional. Conditions: Homo sapiens.
In assay [20] the test system is HEK293. In words: cells. The format is functional, cell-based. Conditions: Homo sapiens. The source holds these as a separate data set.
The target of assay [21] is T6, Calpain-2 catalytic subunit (Sus scrofa, UniProt P43367).
T6 sequence (P43367 whole entry): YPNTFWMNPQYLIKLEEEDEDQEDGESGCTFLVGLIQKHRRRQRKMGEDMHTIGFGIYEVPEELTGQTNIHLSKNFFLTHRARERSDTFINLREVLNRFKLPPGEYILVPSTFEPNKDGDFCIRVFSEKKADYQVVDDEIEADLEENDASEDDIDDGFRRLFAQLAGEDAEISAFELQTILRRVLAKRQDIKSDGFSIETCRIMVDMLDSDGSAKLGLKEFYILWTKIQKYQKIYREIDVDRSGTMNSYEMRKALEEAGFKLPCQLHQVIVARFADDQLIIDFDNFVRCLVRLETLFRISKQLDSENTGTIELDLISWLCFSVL
In words: pig calpain II inhibitor potency, dose response, biochemical, fluorogenic peptide substrate (AID 1420). The format is functional.

The source made the active and inactive calls.

Eukaryotic translation initiation factor 4E, sequence (P63073 whole entry): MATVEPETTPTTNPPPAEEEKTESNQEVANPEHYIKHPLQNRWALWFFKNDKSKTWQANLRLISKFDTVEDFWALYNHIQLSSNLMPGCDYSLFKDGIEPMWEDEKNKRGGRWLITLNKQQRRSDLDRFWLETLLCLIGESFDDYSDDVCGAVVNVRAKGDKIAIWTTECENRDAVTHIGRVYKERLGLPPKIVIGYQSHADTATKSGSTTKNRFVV
T1 sequence (P08684 whole entry): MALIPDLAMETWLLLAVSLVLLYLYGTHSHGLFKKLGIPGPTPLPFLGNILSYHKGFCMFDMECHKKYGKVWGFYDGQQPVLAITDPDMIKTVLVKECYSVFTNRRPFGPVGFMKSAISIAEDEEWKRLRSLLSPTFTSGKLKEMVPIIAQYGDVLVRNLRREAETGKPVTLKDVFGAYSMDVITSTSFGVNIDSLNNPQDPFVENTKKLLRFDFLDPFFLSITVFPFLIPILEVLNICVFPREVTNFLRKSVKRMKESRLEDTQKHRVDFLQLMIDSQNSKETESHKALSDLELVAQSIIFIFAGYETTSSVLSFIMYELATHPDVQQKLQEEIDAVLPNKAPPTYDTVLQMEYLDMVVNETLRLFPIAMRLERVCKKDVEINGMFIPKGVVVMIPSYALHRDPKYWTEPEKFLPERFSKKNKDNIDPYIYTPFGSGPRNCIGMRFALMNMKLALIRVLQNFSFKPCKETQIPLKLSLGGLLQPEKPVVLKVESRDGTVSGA
26S proteasome non-ATPase regulatory subunit 14, sequence (O00487 whole entry): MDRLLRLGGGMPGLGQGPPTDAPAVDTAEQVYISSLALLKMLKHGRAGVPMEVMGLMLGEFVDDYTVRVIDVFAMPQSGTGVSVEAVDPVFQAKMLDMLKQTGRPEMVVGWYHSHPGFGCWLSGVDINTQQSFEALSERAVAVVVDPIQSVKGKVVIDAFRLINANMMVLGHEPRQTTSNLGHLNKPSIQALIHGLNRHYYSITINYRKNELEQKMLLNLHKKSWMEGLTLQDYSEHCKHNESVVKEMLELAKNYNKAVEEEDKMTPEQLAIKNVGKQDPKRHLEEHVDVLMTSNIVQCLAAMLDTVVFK
72 kDa type IV collagenase, sequence (P08253 whole entry): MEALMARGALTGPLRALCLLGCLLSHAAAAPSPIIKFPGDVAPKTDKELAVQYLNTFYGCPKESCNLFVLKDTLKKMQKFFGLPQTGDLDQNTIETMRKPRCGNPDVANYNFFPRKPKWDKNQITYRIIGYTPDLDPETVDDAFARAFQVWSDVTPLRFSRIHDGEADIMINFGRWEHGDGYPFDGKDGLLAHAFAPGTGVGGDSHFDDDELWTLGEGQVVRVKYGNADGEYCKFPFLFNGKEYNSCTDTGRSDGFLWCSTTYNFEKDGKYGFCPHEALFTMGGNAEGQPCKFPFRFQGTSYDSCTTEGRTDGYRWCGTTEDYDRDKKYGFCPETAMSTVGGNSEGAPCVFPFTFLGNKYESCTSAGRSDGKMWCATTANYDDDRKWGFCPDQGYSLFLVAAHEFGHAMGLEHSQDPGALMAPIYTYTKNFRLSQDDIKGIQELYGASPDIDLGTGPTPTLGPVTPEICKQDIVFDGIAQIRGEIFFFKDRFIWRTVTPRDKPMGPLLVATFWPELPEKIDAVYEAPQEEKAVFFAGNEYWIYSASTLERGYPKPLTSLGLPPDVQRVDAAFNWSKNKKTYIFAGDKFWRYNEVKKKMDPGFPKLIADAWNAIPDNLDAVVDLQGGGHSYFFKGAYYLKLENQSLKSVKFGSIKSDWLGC
T4 sequence (Q00975 whole entry): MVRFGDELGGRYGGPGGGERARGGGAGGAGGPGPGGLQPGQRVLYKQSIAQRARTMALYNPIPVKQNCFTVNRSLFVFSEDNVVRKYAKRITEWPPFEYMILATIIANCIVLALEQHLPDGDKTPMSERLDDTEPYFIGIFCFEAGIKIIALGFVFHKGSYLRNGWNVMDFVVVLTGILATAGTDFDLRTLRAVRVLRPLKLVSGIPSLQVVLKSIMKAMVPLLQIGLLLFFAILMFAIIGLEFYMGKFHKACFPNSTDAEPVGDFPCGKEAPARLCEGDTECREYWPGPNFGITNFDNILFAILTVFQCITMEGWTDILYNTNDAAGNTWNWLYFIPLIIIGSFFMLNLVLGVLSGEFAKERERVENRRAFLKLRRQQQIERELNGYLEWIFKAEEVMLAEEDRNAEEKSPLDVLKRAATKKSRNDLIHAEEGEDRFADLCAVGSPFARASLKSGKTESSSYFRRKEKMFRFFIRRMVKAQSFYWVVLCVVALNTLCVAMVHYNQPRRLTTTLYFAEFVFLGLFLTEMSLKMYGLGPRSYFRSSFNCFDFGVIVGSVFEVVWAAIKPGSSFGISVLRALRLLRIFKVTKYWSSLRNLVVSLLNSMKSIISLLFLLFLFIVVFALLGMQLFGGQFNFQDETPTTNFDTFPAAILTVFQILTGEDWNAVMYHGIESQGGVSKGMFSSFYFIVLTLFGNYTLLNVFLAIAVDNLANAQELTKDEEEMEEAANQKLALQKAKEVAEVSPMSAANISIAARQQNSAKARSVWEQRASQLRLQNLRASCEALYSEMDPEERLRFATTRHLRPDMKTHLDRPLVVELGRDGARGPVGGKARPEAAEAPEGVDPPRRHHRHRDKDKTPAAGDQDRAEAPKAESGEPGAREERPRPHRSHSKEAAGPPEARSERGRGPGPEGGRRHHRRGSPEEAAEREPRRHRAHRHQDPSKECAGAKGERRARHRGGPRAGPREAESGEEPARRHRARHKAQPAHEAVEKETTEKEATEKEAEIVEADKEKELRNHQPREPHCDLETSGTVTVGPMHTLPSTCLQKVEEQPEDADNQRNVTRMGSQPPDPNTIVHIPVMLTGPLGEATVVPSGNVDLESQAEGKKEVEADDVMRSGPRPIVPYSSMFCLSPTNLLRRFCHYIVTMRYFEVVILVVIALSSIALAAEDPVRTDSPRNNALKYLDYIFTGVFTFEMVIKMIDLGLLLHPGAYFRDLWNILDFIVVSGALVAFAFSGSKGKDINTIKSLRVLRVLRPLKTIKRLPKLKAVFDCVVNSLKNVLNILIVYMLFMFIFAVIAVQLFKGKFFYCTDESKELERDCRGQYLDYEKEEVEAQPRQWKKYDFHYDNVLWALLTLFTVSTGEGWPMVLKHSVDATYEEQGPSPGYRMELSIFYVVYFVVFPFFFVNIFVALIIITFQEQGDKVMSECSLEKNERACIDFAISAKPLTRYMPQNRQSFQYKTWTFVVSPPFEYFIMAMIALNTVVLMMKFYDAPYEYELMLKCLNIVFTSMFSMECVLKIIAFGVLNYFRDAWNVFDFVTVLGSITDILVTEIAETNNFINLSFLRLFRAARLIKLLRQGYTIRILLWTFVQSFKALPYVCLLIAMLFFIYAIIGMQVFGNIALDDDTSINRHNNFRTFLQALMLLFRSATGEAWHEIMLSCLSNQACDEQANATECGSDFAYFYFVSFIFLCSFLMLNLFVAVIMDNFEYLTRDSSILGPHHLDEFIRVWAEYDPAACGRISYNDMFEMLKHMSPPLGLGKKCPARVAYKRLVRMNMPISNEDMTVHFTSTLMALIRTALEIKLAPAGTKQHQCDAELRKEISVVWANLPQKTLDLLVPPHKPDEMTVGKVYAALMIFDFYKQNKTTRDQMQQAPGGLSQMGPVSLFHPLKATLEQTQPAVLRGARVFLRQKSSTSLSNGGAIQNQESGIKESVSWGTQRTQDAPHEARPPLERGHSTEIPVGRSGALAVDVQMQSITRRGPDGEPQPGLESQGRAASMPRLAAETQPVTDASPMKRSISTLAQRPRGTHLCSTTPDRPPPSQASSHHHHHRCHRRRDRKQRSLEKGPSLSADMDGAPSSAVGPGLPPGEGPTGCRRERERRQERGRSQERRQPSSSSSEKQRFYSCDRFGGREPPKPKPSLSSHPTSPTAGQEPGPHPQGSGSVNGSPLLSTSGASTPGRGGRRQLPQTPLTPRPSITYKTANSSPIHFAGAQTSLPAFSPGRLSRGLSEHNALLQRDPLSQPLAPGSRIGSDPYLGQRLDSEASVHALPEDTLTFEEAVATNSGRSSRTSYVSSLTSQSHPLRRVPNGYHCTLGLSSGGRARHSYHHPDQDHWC
T4 sequence (Q02410 whole entry): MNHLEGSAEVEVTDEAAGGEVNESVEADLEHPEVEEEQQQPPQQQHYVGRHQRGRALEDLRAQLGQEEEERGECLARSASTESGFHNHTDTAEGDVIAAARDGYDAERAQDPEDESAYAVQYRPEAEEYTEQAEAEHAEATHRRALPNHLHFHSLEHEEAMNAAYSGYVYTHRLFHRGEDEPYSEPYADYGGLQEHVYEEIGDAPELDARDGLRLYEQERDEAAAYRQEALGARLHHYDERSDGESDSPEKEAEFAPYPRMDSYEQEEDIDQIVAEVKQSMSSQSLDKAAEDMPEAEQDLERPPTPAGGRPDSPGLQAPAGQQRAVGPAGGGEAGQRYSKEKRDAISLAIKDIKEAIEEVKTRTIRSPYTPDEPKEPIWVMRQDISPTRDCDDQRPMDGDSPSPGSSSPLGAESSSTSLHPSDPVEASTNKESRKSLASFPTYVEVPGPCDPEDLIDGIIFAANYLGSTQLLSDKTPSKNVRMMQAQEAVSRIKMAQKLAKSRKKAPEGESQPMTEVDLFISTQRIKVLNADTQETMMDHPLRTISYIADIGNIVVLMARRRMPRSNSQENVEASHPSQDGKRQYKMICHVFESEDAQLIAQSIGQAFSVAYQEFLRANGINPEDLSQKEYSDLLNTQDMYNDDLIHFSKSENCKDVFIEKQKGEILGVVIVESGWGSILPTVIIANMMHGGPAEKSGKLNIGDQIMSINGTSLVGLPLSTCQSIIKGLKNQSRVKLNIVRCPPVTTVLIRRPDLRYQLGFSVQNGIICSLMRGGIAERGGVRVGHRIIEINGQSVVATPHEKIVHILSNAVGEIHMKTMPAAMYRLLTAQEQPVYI

The term IC50 denotes the concentration that gives 50% inhibition. The AC50 is the concentration giving half of the maximal activity seen. As for `O=[N+]([O-])c1cc(-c2nnc(O)c3ccccc23)ccc1NCCCO`, the IC50 in the assay with H9c2 is 16.3 µM (active). Further, in assay [1], the AC50 is 25 µM (active).

Regarding `CC(CCC(=O)O)(c1ccc(O)cc1)c1ccc(O)cc1`, the AC50 on Cytochrome P450 3A4 [2] is 39.8 µM (inconclusive).

With `CCOC(=O)C1CCN(C(=O)CCc2nc3sc4c(c3c(=O)[nH]2)CCCC4)CC1`, the IC50 in assay [3] was 31.6 µM (active); in [4] it was > 100 µM (inactive); at Prothrombin [5], 36.5 µM (active).

`O=c1c(O)c(-c2ccc(O)c(O)c2)oc2c(OC3OC(CO)C(O)C(O)C3O)c(O)cc(O)c12` (centres undefined): the AC50 at Cytochrome P450 3A4 [2] is 39.8 µM (inconclusive).

Regarding `Cc1nc(NCCc2ccccc2F)c(C#N)c(C)c1[N+](=O)[O-]`, the IC50 against Prothrombin [6] was > 50 µM (not active).

Turning to `Cc1ccc(SCc2cc(=O)[nH]c(NC(N)=Nc3ccc(C)c(C)c3)n2)cc1`, the IC50 in assay [7] was > 64 µM (inactive). In addition, the AC50 at Cytochrome P450 1A2 is 5.62 µM (inconclusive); on Cytochrome P450 3A4 [8], 7.08 µM (inconclusive); at Cytochrome P450 2C9, 2.24 µM (inconclusive).

A word on the EC50: it is the concentration needed to bring the measured effect to its halfway point. For `O=C(Nc1ccc(F)cc1)Nc1nnc(-c2ccncc2)s1`, the concentration giving a half-maximal response (EC50) in assay [9] was 22.4 µM (active); in assay [10], 25.9 µM (active). Also, the IC50 in assay [3] was 23.2 µM (active); in [4] it was > 100 µM (inactive); on Prothrombin [5], 65.5 µM (active).

On to `Cc1ccc(C(=O)NCCN2CCNC2=O)cc1`, for which, on Coagulation factor XII, the IC50 was > 50 µM (inactive).

As to `N#Cc1ccccc1NC(=O)COC(=O)COc1ccccc1[N+](=O)[O-]`, at Prothrombin [6], the IC50 was 9.18 µM (active).

In the case of `COc1ccc(Oc2c(Cl)cnn(-c3ccccc3)c2=O)cc1`, the AC50 was 19.7 µM (active) in assay [1] and 11.2 µM (inconclusive) on Cytochrome P450 2C9.

As for `CCOc1cc(C(=S)N2CCOCC2)ccc1O`, the figures for the IC50 in assay [7] and in assay [11] were > 64 µM (inactive) and 42.8 µM (active), respectively.

Consider `COc1cc(/C=C2\N=C3CCCCCN3C2=O)ccc1O`, for which the IC50 is 9.11 µM (active) on Large T antigen, 14.8 µM (active) in assay [3], > 100 µM (inactive) in [4] and 29.7 µM (active) on Prothrombin [5].

For `CCc1c(C)sc(NC(=O)C2CCCCC2C(=O)O)c1C(N)=O` (centres undefined), the IC50 in assay [7] was > 64 µM (inactive).

For `CC(Oc1ccccc1)C(=O)NC1C(=O)N2C(C(=O)O)C(C)(C)S[C@@H]12` (some centres undefined), the AC50 on Cytochrome P450 3A4 [2] was 0.251 µM (inconclusive).

Regarding `CCN1C(=O)c2[nH]nc(C(=O)OC)c2C1=O`, the IC50 on Coagulation factor XII was > 50 µM (inactive).

For the compound `NS(=O)(=O)c1ccc(CCNC(=O)/C=C/c2ccc([N+](=O)[O-])cc2)cc1`, the IC50 in assay [12] is 9.65 µM (active); in assay [13] it was > 50 µM (inactive).

With `c1ccc(-n2nnc3cnccc32)cc1`, in assay [7], the IC50 is > 64 µM (inactive).

In the case of `O=C(c1cccs1)n1nc(-c2ccco2)nc1SCc1ccccc1`, the EC50 in assay [14] is > 195 µM (not active). The IC50 at Prothrombin [6] is 1.48 µM (active).

On to `Cc1cc(C)n(C(=O)CNc2cccc(Cl)c2C)n1`, for which the IC50 at Coagulation factor XII was > 50 µM (inactive).

Consider `CC(=O)C1=C(O)C(=CC=Cc2ccccc2)OC1=O`, for which the IC50 in assay [3] was 35.2 µM (active); in assay [4] it was > 100 µM (inactive); on Prothrombin [5], 50.4 µM (active).

Consider `O=C(C1CC1)N1C[C@@H]2N[C@H](C1)[C@@H]2c1ccc(/C=C/c2ccccc2)cc1`, for which the AC50 in assay [1] was 32.3 µM (active).

`CCN1C(C)=C(C(=O)OC)C(c2ccccc2)N2C(=O)[C@@]3(C(=O)OC)O[C@@]12C1C(=O)CCCC13` (some centres undefined): the AC50 on Cytochrome P450 3A4 [2] is 3.98 µM (inconclusive).

As to `O=C(CC1Sc2ncnn2C1=O)Nc1ccc(Br)cc1` (centres undefined), in [11], the IC50 is 55.8 µM (active).

`COc1cc([N+](=O)[O-])ccc1-c1ccc(/C=N/NC(=O)c2ccccc2O)o1`: the EC50 (in the assay with HEK293 [15]; in assay [18]) was > 20 µM (inactive) each time. Also, the IC50 in the assay on HEK293 [16] was 19.9 µM (active); in the assay with HEK293 [17], > 20 µM (inactive); with HEK293 [19], 14.1 µM (inactive); with HEK293 [20], > 20 µM (inactive); in assay [21] it was 8.3 µM (not active).
